Reference: ChEMBL document CHEMBL1201862, “PubChem BioAssay data set” (2004)
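In this assay, cells in 96-well plates receive the compound at five concentrations for 48 hours. Endpoints are linearly interpolated between the surrounding concentrations. The concentration for 50% growth inhibition is given as GI50.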 Active and inactive are the calls of the source. Rule as the data show it: active = GI50 up to about 1.1 µM and inactive = higher.

Legend:
Experiment in all cases: NCI tumour cell line growth inhibition, 48 h
A498 = system: A498
HCC 2998 = system: HCC 2998
HCT-116 = system: HCT-116
HOP-62 = system: HOP-62
HOP-92 = system: HOP-92
MCF7 = system: MCF7
MDA-MB-231 = system: MDA-MB-231
MDA-MB-435 = system: MDA-MB-435
Malme-3M = system: Malme-3M
NCI-H23 = system: NCI-H23
NCI-H460 = system: NCI-H460
NCI-H522 = system: NCI-H522
NCI/ADR-RES = system: NCI/ADR-RES
OVCAR-5 = system: OVCAR-5
PC-3 = system: PC-3
SF-268 = system: SF-268
SF-539 = system: SF-539
SK-MEL-28 = system: SK-MEL-28
SNB-19 = system: SNB-19
UO-31 = system: UO-31

Compound	GI50 (A498)	GI50 (HCC 2998)	GI50 (HCT-116)	GI50 (HOP-62)	GI50 (HOP-92)	GI50 (MCF7)	GI50 (MDA-MB-231)	GI50 (MDA-MB-435)	GI50 (Malme-3M)	GI50 (NCI-H23)	GI50 (NCI-H460)	GI50 (NCI-H522)	GI50 (NCI/ADR-RES)	GI50 (OVCAR-5)	GI50 (PC-3)	GI50 (SF-268)	GI50 (SF-539)	GI50 (SK-MEL-28)	GI50 (SNB-19)	GI50 (UO-31)
O=C(NCCN1CCCCC1)c1ccc(I)cc1	24.8 µM (inactive)	> 100 µM (inactive)	> 100 µM (inactive)	> 100 µM (inactive)	96.4 µM (inactive)	> 100 µM (inactive)	> 100 µM (inactive)	> 100 µM (inactive)	> 100 µM (inactive)	> 100 µM (inactive)	> 100 µM (inactive)	> 100 µM (inactive)	> 100 µM (inactive)	> 100 µM (inactive)	> 100 µM (inactive)	> 100 µM (inactive)	> 100 µM (inactive)	> 100 µM (inactive)	> 100 µM (inactive)	> 100 µM (inactive)
Oc1nc(S)nc2c1CN(CCCN1CCOCC1)CN2	> 100 µM (inactive)	21.9 µM (inactive)	34.4 µM (inactive)	30.9 µM (inactive)	37.7 µM (inactive)	34.7 µM (inactive)	26.7 µM (inactive)	22.5 µM (inactive)	19.7 µM (inactive)	22.4 µM (inactive)	25.9 µM (inactive)	21.2 µM (inactive)	37.8 µM (inactive)	> 100 µM (inactive)	22.1 µM (inactive)	23.1 µM (inactive)	25.5 µM (inactive)	> 100 µM (inactive)	> 100 µM (inactive)	36.8 µM (inactive)
COc1cc2c(cc1OCCN1C(=O)c3cccc4cccc(c34)C1=O)N=C[C@@H]1CCCN1C2=O	9.04 µM (inactive)	7.74 µM (inactive)	7.66 µM (inactive)	21.5 µM (inactive)	7.76 µM (inactive)	6.59 µM (inactive)	7.41 µM (inactive)	10.7 µM (inactive)	8.02 µM (inactive)	10.4 µM (inactive)	5.89 µM (inactive)	1.17 µM (inactive)	15.8 µM (inactive)	10.9 µM (inactive)	7.08 µM (inactive)	7.74 µM (inactive)	9.12 µM (inactive)	8.95 µM (inactive)	12.4 µM (inactive)	8.87 µM (inactive)
COC(=O)c1ccc2c(c1)sc1nc(-c3ccc(OC)cc3)cn12	> 100 µM (inactive)	> 100 µM (inactive)	> 100 µM (inactive)	> 100 µM (inactive)	24.7 µM (inactive)	66.2 µM (inactive)	> 100 µM (inactive)	42.8 µM (inactive)	> 100 µM (inactive)	> 100 µM (inactive)	> 100 µM (inactive)	62.2 µM (inactive)	> 100 µM (inactive)	> 100 µM (inactive)	> 100 µM (inactive)	83.8 µM (inactive)	59.8 µM (inactive)	> 100 µM (inactive)	66.5 µM (inactive)	> 100 µM (inactive)
COc1ccc(OC)c([N+](=O)[O-])c1-c1nc2sc(Cl)cn2c1/C=N/N=C(N)N	14.1 µM (inactive)	12.7 µM (inactive)	58.3 µM (inactive)	55.8 µM (inactive)	10.1 µM (inactive)	9.89 µM (inactive)	15.1 µM (inactive)	17.5 µM (inactive)	22.5 µM (inactive)	26.4 µM (inactive)	20.7 µM (inactive)	16.6 µM (inactive)	> 100 µM (inactive)	25.9 µM (inactive)	13.8 µM (inactive)	20.8 µM (inactive)	22.9 µM (inactive)	13.9 µM (inactive)	19.4 µM (inactive)	16.7 µM (inactive)
NS(=O)(=O)c1nnc(NS(=O)(=O)c2ccc([N+](=O)[O-])cc2)s1	> 100 µM (inactive)	> 100 µM (inactive)	> 100 µM (inactive)	> 100 µM (inactive)	> 100 µM (inactive)	> 100 µM (inactive)	> 100 µM (inactive)	> 100 µM (inactive)	> 100 µM (inactive)	> 100 µM (inactive)	> 100 µM (inactive)	29.6 µM (inactive)	> 100 µM (inactive)	> 100 µM (inactive)	> 100 µM (inactive)	> 100 µM (inactive)	> 100 µM (inactive)	> 100 µM (inactive)	–	> 100 µM (inactive)
COc1cccc(CCNc2c(C#N)c3nc4ccccc4n3c3ccccc23)c1	0.592 µM (active)	0.643 µM (active)	0.405 µM (active)	10.5 µM (inactive)	29.6 µM (inactive)	0.0775 µM (active)	2.33 µM (inactive)	0.118 µM (active)	0.239 µM (active)	0.741 µM (active)	0.378 µM (active)	0.063 µM (active)	0.333 µM (active)	7 µM (inactive)	1.11 µM (active)	2.06 µM (inactive)	0.548 µM (active)	1.22 µM (inactive)	0.787 µM (active)	2.81 µM (inactive)
COc1ccc(C(c2c[nH]c3ccc(Br)cc23)c2c[nH]c3ccc(Br)cc23)cc1	1.04 µM (active)	0.181 µM (active)	0.149 µM (active)	0.411 µM (active)	0.213 µM (active)	0.21 µM (active)	0.242 µM (active)	0.172 µM (active)	0.811 µM (active)	0.367 µM (active)	0.228 µM (active)	0.173 µM (active)	0.357 µM (active)	0.385 µM (active)	0.284 µM (active)	0.33 µM (active)	0.51 µM (active)	0.303 µM (active)	0.509 µM (active)	0.394 µM (active)
CCOC(=O)Cc1c(C)c2cc(C(=O)c3ccccc3)c(O)cc2oc1=O	25.3 µM (inactive)	32.6 µM (inactive)	33.3 µM (inactive)	35.6 µM (inactive)	21.6 µM (inactive)	22.4 µM (inactive)	23.8 µM (inactive)	33 µM (inactive)	25.4 µM (inactive)	19.3 µM (inactive)	33.3 µM (inactive)	27 µM (inactive)	26.1 µM (inactive)	26 µM (inactive)	24.8 µM (inactive)	24.9 µM (inactive)	20.4 µM (inactive)	34.2 µM (inactive)	33.7 µM (inactive)	–
COc1ccc(Oc2nc3cc(C(F)(F)F)ccc3nc2C(C)C)cc1	20 µM (inactive)	20.1 µM (inactive)	31 µM (inactive)	40.4 µM (inactive)	17.2 µM (inactive)	18.8 µM (inactive)	24.7 µM (inactive)	30.1 µM (inactive)	24.7 µM (inactive)	21 µM (inactive)	23.2 µM (inactive)	19.1 µM (inactive)	19.4 µM (inactive)	24.9 µM (inactive)	41.6 µM (inactive)	32.7 µM (inactive)	41.5 µM (inactive)	48 µM (inactive)	33.1 µM (inactive)	32.6 µM (inactive)
CC(C)(C)C1=CC(=C2C=Cc3cc(O)ccc3O2)C=C(C(C)(C)C)C1=O	1.5 µM (inactive)	1.26 µM (inactive)	1.17 µM (inactive)	1.92 µM (inactive)	1.67 µM (inactive)	1.07 µM (active)	1.7 µM (inactive)	1.5 µM (inactive)	1.59 µM (inactive)	1.79 µM (inactive)	1.34 µM (inactive)	1.48 µM (inactive)	1.95 µM (inactive)	2.13 µM (inactive)	1.57 µM (inactive)	1.81 µM (inactive)	1.87 µM (inactive)	1.73 µM (inactive)	1.77 µM (inactive)	1.24 µM (inactive)
COC(=O)C1OC(O[C@H]2CC[C@]3(C)[C@H]4CC=C5[C@@H]6CC(C)(C)CC[C@]6(C(=O)OC6OCC(O)C(O)C6OC6OC(C)C(OC7OCC(OC8OCC(O)C(O)C8O)C(O)C7O)C(O)C6O)[C@H](O)C[C@@]5(C)[C@]4(C)CC[C@H]3C2(C)C)C(O)C(O)C1O (some centres not stated)	2.03 µM (inactive)	1.63 µM (inactive)	2.19 µM (inactive)	5.33 µM (inactive)	1.91 µM (inactive)	0.69 µM (active)	2.71 µM (inactive)	1.95 µM (inactive)	4.16 µM (inactive)	2.43 µM (inactive)	16 µM (inactive)	2.66 µM (inactive)	6.41 µM (inactive)	2.77 µM (inactive)	4.19 µM (inactive)	4.72 µM (inactive)	11.4 µM (inactive)	2.08 µM (inactive)	3.08 µM (inactive)	1.75 µM (inactive)
CCCCCCCCCCCCCC/C(C(=O)O)=C(\C)C(=O)O	> 100 µM (inactive)	> 100 µM (inactive)	> 100 µM (inactive)	> 100 µM (inactive)	> 100 µM (inactive)	> 100 µM (inactive)	> 100 µM (inactive)	> 100 µM (inactive)	> 100 µM (inactive)	> 100 µM (inactive)	> 100 µM (inactive)	> 100 µM (inactive)	97.7 µM (inactive)	> 100 µM (inactive)	38.2 µM (inactive)	> 100 µM (inactive)	> 100 µM (inactive)	> 100 µM (inactive)	> 100 µM (inactive)	> 100 µM (inactive)
COc1cccc(-c2cc(=O)c3ccc(C)nc3[nH]2)c1	0.0405 µM (active)	0.0715 µM (active)	0.0448 µM (active)	0.0904 µM (active)	0.0401 µM (active)	0.165 µM (active)	0.245 µM (active)	< 0.01 µM (active)	0.0403 µM (active)	0.214 µM (active)	0.0451 µM (active)	0.0448 µM (active)	0.0594 µM (active)	0.239 µM (active)	0.0361 µM (active)	0.0671 µM (active)	0.0388 µM (active)	–	0.0592 µM (active)	0.0752 µM (active)
